In US9896418B2, “Aryl ethers and uses thereof” (Peloton Therapeutics, Inc., priority 2013, dated 2018):

What was measured:
human VEGFA [1] = test: plasma human VEGF level of 786-O xenograft bearing mice; format: in vivo; conditions: 10, 30 and 100 mg/kg three times at 12 hour intervals, 12 h post treatment vs prior to treatment, FIG. 5
[2] = tested on: renal cell carcinoma 786-O xenograft; test: tumor size in 786-O xenograft bearing mice, single agent; format: in vivo; conditions: 3, 10, 30 and 100 mg/kg BID for 20 days, FIG. 7
mouse kidney = test: In vivo PK/PD study, kidney mRNA levels by qRT-PCR; parameters: species or system SCID/Biege mice; conditions: FIG. 3
Protocol: About 5×10^6 renal cell carcinoma 786-O tumor cells (ATCC® CRL-1932™, VHL and HIF-1α null cell line) in PBS and Matrigel (1:1 in volume) were injected subcutaneously at the right flanks of SCID/Biege mice at 6-7 weeks of age for xenograft development. When the xenografts reached about 450 mm^3 in size, the tumor bearing mice were randomly divided into 4 groups (n=4). Plasma was collected prior to treatment by retro-orbital bleeding. […] All animals were sacrificed at 12 hours post last dose. Tumor, kidney, and plasma were collected from each animal. Total RNA was extracted from the tumors and kidneys. The mRNA levels of HIF-1α, HIF-2α and their respective target genes were determined by qRT-PCR (FIG. 1).

human VEGFA [3] = test: In vivo PK/PD study, plasma human VEGFA by ELISA; parameters: species or system SCID/Biege mice; conditions: 786-O tumor-bearing mice; 10, 30 or 100 mg/kg; FIG. 5
[4] = tested on: 786-O renal cell carcinoma xenograft; test: In vivo efficacy study, 786-O xenograft; parameters: species or system SCID/Biege mice; conditions: for Tumor size Mean ± SEM: after 20 days of dosing

N#Cc1cc(F)cc(Oc2ccc(S(=O)(=O)C(F)F)c3c2CC(F)(F)[C@H]3O)c1 [Compound 15, 3-[(1S)-7-(difluoromethylsulfonyl)-2,2-difluoro-1-hydroxy-indan-4-yl]oxy-5-fluoro-benzonitrile]
plasma level of human VEGFA (human VEGFA [1]): reduced | tumor size [2]: tumor size reduction and regression | Kidney EPO mRNA level (mouse kidney): reduced | Kidney PGK1 mRNA level (mouse kidney): remained unchanged | plasma level of human VEGFA (human VEGFA [3]): significant reduction | Tumor size Mean ± SEM ([4]; 3 mg/kg BID): 136.29 ± 15.77 mm^3 | Tumor size Mean ± SEM ([4]; 10 mg/kg BID): 45.36 ± 2.22 mm^3 | Tumor size Mean ± SEM ([4]; 30 mg/kg BID): 35.63 ± 2.26 mm^3 | Tumor size Mean ± SEM ([4]; 100 mg/kg BID): 37.11 ± .6 mm^3 | Tumor size change vs vehicle ([4]; 3, 10, 30 and 100 mg/kg BID, 20 days, t-Test): statistically significant reduction of tumor size
